Results reported in US20140309171A1, “MARKER FOR BLOOD COAGULATION” (Universite Catholique De Louvain, priority 2011, published 2014).
Entries after “also recorded” stand apart in the source; their conditions may differ.

Tests used:
Format in all cases: cell-based
[1] = tested on: AMPK Thr172 phosphorylation in human platelets; test: Western blot of AMPK Thr172 phosphorylation in human platelets; details: 10 μM STO-609, thrombin-treated human platelets (not shown)
Protocol: Washed human platelets (used in in vitro studies). Platelets were obtained from adult healthy volunteers in accordance with the Ethics Commission of our institution (Commission d'Ethique Biomédicale Hospitalo-Facultaire, Université catholique de Louvain). Whole blood was collected with butterfly needle 21G into Sodium Citrate 1:10 solution (S-monovette). Platelet-rich plasma (PRP) was obtained by 15 min centrifugation at 330 g. The platelets pellet was then washed in Tyrode modified buffer (135 mM NaCl, 12 mM NaHCO3, 1 mM Sodium Citrate, 2.9 mM KCl, 0.3 mM Na2HPO4, 1 mM MgCl2, 5 mM D-glucose, 10 mM Hepes, 0.35% bovine serum albumin (BSA), pH 7.4 at 37° C.) and resuspended to a density of 2.5 10^5 platelets/μl for the measurement of intracellular Ca^2+ or platelet aggregation. For Western Blot analysis, PRP with eptifibatide 4 μg/ml (Integriline, GlaxoSmithKline) and ectonucleotidase apyrase (grade I) 0.5 U/ml was layered over a density barrier of iodixanol (Optiprep®) that allowed the erythrocytes and leucocytes to pellet during centrifugation at 350 g for 15 min. […] Bound antibodies were detected by enhanced chemiluminescence (Thermofisher). […] Band intensities were quantified by scanning and processing image intensities with the program ImageJ (1.33 for Mac OS X). The quantification of immunoblots presented in results was obtained after normalization using the internal loading control.

[2] = tested on: activated conformation of αIIbβ3 on human platelets; test: Flow cytometry, PAC-1 binding; details: 0.025 U/ml thrombin, 10 μM STO-609
Protocol: Flow cytometric analysis was performed on a FACScan (Becton Dickinson). Washed human platelets (2·10^5 platelets/μl) were pre-incubated with DMSO/STO-609 for 2 min and then treated with or without thrombin (0.025 U/ml) in the presence of excessive amounts of FITC-conjugated monoclonal antibody (anti-CD62P (BD Biosciences) or PAC-1 (BD Biosciences)) at room temperature. The samples were then fixed at 4° C. for 30 min with 2% paraformaldehyde. The levels of P-selectin expression and PAC1 binding were expressed as the percentages of cells positive for anti-CD62P and PAC-1, respectively. The negative cut-off for each antibody was set using resting platelets that gave less than 5% of cells positive for binding of anti-CD62P or PAC-1. In addition to aggregation measurements, we examined by flow cytometry STO-609 effects on PAC-1 binding, an antibody specific for the activated conformation of αIIbβ3. Platelets were activated by 0.025 U/ml thrombin in the absence or presence of 10 μM STO-609.

[3] = tested on: cofilin Ser3 phosphorylation; test: Western blot of cofilin Ser3 phosphorylation in human platelets; details: 0.1 U/ml thrombin, 10 μM STO-609, 10 min after thrombin exposure
Protocol: Washed human platelets (used in in vitro studies). Platelets were obtained from adult healthy volunteers in accordance with the Ethics Commission of our institution (Commission d'Ethique Biomédicale Hospitalo-Facultaire, Université catholique de Louvain). Whole blood was collected with butterfly needle 21G into Sodium Citrate 1:10 solution (S-monovette). Platelet-rich plasma (PRP) was obtained by 15 min centrifugation at 330 g. The platelets pellet was then washed in Tyrode modified buffer (135 mM NaCl, 12 mM NaHCO3, 1 mM Sodium Citrate, 2.9 mM KCl, 0.3 mM Na2HPO4, 1 mM MgCl2, 5 mM D-glucose, 10 mM Hepes, 0.35% bovine serum albumin (BSA), pH 7.4 at 37° C.) and resuspended to a density of 2.5 10^5 platelets/μl for the measurement of intracellular Ca^2+ or platelet aggregation. […]
Proteins were separated as described (Miranda et al. 2010. J Clin Invest 103(6): 879-887). […] Bound antibodies were detected by enhanced chemiluminescence (Thermofisher). […] Band intensities were quantified by scanning and processing image intensities with the program ImageJ (1.33 for Mac OS X). The quantification of immunoblots presented in results was obtained after normalization using the internal loading control.

[4] = tested on: Ser79 acetyl-CoA carboxylase (ACC) phosphorylation in human platelets; test: Western blot of phosphorylated (Ser79) ACC in human platelets; details: 10 μM STO-609, 0.1 U/ml thrombin

`O=C(O)c1ccc2c3c1cccc3c(=O)n1c3ccccc3nc21` [STO-609] was tested, and the “AMPK activation, as judged by phosphorylation of AMPK Thr172” value [1] was “markedly reduced”, the “PAC-1 binding in response to thrombin” value [2] was “significantly inhibited” and the “thrombin-induced cofilin phosphorylation, effect of pre-incubation” value [3] was “significantly decreased; also recorded: prevents”. For the same compound, the “AMPK activation, as judged by phosphorylation of downstream Ser79 acetyl-CoA carboxylase (ACC)” value [4] was “markedly reduced”.
